Source: patent US20230293629A1, “METHODS FOR ATTENUATING RELEASE OF INFLAMMATORY MEDIATORS AND PEPTIDES USEFUL THEREIN” (BIOMARCK PHARMACEUTICALS LTD., priority 2006, published 2023)
Where a SMILES comes first, the peptide text is derived from it. Where no end group is shown, it is not given here. The star is where a group is joined. Myristoyl = CCCCCCCCCCCCCC(=O)*

Tested on: LPS-induced lung inflammation
Assay: In vivo LPS-induced lung inflammation, BAL analysis
Parameters: species or system mice
Conditions: for Hb / MPO / LDH / Total Protein: BAL fluid; for Inhibition of neutrophil migration: relative to PBS/LPS treatment
Description: This example was performed essentially according to methods described by Cox, G, Crossley, J., and Xing, Z.; Macrophage engulfment of apoptotic neutrophils contributes to the resolution of acute pulmonary inflammation in vivo; Am. J. Respir. Cell Mol. Biol. 12:232-237, 1995; Hirano S., Quantitative time-course profiles of bronchoalveolar lavage cells following intratracheal instillation of lipopolysaccharide in mice, Ind. Health 35:353-358, 1997; and Ulich T R, Watson L R, Yin S M, Guo K Z, Wang P, Thang H, and del Castillo, J. Am. J. Pathol. 138:1485-1496, 1991.
Thus, six to seven week old CD1 female mice weighing 15-20 grams were obtained from Charles River laboratories and housed in groups of 5 mice per cage. The animals received standard rodent diet and filtered water ad libitum. The animals were housed under NIH prescribed guidelines at standard temperature (64° to 79° F.) and relative humidity of 30 to 70%.
Five treatment groups of mice, with 5 animals in each group, were treated either with PBS followed by PBS, with PBS followed by LPS, with (myristoylated) MANS peptide followed by LPS, with acetylated peptide of SEQ ID NO: 1, followed by LPS, or with acetylated peptide of SEQ ID NO: 106, followed by LPS.
Intranasal peptide instillation pre-treatment: A peptide of the invention to be evaluated in vivo for its ability to inhibit or reduce LPS-induced lung inflammation was dissolved in PBS at a concentration of 1 mM. Animals, anesthetized with 0.8% isofluorane by inhalation, were pretreated with 2×10 μL intranasal bolus of the peptide solution into one nostril 30 minutes prior to subsequent instillation with LPS.
Intranasal LPS instillation: Lipopolysaccharide (LPS) Endotoxin (Escherichia coli Serotype 011:B4 derived endotoxin; Sigma, St Louis, MO; see Sigma product information sheet L4130 titled Lipopolysaccharides from Escherichia coli 011:B4) was dissolved into phosphate buffered saline (PBS) at 2,500 μg/mL. To expose animals to endotoxin, a 10 μL intranasal bolus of 2,500 μg/ml endotoxin solution was administered to animals which had been anesthetized with 0.8% isofluorane by inhalation. The 10 μL bolus was applied into one nostril. Animals were monitored for labored breathing, lethargy, and decreased water/food intake following the endotoxin instillations.
Bronchoalveolar Lavage (BAL): Six hours after the last instillation, the animals were anesthetized (90 mg/kg Nembutal) and sacrificed by exsanguination. The lung was serially lavaged 2 times with 1.0 mL aliquots of PBS. The collected BAL fluid was centrifuged to remove the cells for subsequent counting and differential analysis. Recovered lavage fluid was used for analysis of total protein, myeloperoxidase (MPO), LDH, and hemoglobin.
Analysis: Aliquots of the BAL fluid were used immediately to assay for the levels of LDH, total protein, or hemoglobin using the COBAS Fara analyzer (COBAS FARA II automated analyzer; Roche Diagnostic Systems Inc., Montclair, NJ). An aliquot of BAL fluid was frozen at −80° C. for subsequent quantitation of myeloperoxidase (MPO) with a mouse-specific ELISA assay (Cell Sciences, Inc., Canton, Mass). BAL data were analyzed by standard techniques to examine differences between the control and treatment groups.

Molecule: CCCCCCCCCCCCCC(=O)NCC(=O)N[C@@H](C)C(=O)N[C@@H](CCC(N)=O)C(=O)N[C@@H](Cc1ccccc1)C(=O)N[C@@H](CO)C(=O)N[C@@H](CCCCN)C(=O)N[C@H](C(=O)N[C@@H](C)C(=O)N[C@@H](C)C(=O)N[C@@H](CCCCN)C(=O)NCC(=O)N[C@@H](CCC(=O)O)C(=O)N[C@@H](C)C(=O)N[C@@H](C)C(=O)N[C@@H](C)C(=O)N[C@@H](CCC(=O)O)C(=O)N[C@@H](CCCNC(=N)N)C(=O)N1CCC[C@H]1C(=O)NCC(=O)N[C@@H](CCC(=O)O)C(=O)N[C@@H](C)C(=O)N[C@@H](C)C(=O)N[C@H](C(=O)N[C@@H](C)C(=O)O)C(C)C)[C@@H](C)O [MANS] (Myristoyl-GAQFSKTAAKGEAAAERPGEAAVA-OH; C-terminus assumed)
- Total cells counted (BAL 6 h after intranasal LPS, 2×10 μL 1 mM peptide intranasal 30 min before LPS, PBS/LPS 264,200, PBS/PBS 157,020): 208,457
- Hb (Table 4 experiment, PBS/LPS 0.19, PBS/PBS 0.00): 0.05 g/dL
- MPO (Table 4 experiment, PBS/LPS 28.98, PBS/PBS 3.28): 9.49 ng/mL
- LDH (Table 4 experiment, PBS/LPS 60.40, PBS/PBS 68.20): 68.57 units/L
- Total Protein (Table 4 experiment, PBS/LPS 272.40, PBS/PBS 125.60): 175.00 µg/mL
- % Neutrophils of total cells (Table 4 experiment, PBS/LPS 41.7, PBS/PBS 18.7): 30.9%
- Total neutrophils counted (Table 4 experiment, PBS/LPS 110,061, PBS/PBS 29317): 64,481
- Inhibition of neutrophil migration: 41.4%

Molecule: Ac-GAQFSKTAAK [Ac-GAQFSKTAAK]
- Hb (Table 6 experiment, PBS/LPS 0.00, PBS/PBS 0.00): 0.00 g/dL
- MPO (Table 6 experiment, PBS/LPS 7.19, PBS/PBS 4.88): 1.50 ng/mL
- LDH (Table 6 experiment, PBS/LPS 78.20, PBS/PBS 61.80): 106.86 units/L
- Total Protein (Table 6 experiment, PBS/LPS 116.4, PBS/PBS 113.8): 131.0 µg/mL
- % Neutrophils of total counts (Table 6 experiment, PBS/LPS 24.4, PBS/PBS 21.3): 3.0%
- Total Neutrophil counts (Table 6 experiment, PBS/LPS 80,077, PBS/PBS 66,521): 9,170
- Total Cell Counts (Table 6 experiment, PBS/LPS 327,680, PBS/PBS 312,620): 305,688
- Inhibition of neutrophil migration: 88.5%

Molecule: Ac-GAQFSKTAAKGEAAAERPGEAAVA
- Hb (Table 5 experiment, PBS/LPS 0.01, PBS/PBS 0.00): 0.01 g/dL
- MPO (Table 5 experiment, PBS/LPS 37.90, PBS/PBS 5.45): 30.79 ng/mL
- LDH (Table 5 experiment, PBS/LPS 89.9, PBS/PBS 84.0): 74.5 units/L
- Total Protein (Table 5 experiment, PBS/LPS 153.4, PBS/PBS 230.6): 182.75 µg/mL
- % Neutrophils of total counts (Table 5 experiment, PBS/LPS 65.5, PBS/PBS 22.1): 41.47%
- Total Neutrophil counts (Table 5 experiment, PBS/LPS 164,578, PBS/PBS 19,770): 105,499
- Total Cell Counts (Table 5 experiment, PBS/LPS 251,360, PBS/PBS 89,440): 254,400
- Inhibition of neutrophil migration: 35.9%
